Measured values as given in patent publication US20220378794A1 (Sinopia Biosciences, Inc., priority 2019, published 2022).

Test system: chronic low-dose MPTP lesioned non-human primate model of cognitive impairment
Details: levodopa 5-20 mg/kg (groups 6-8); in particular shorter delay periods DP1 and DP2; vs vehicle

Q: How did the “accuracy of VDR test” value turn out when N[C@@H](Cc1ccc(O)c(O)c1)C(=O)O [levodopa] was run?
A: Its value is “trend toward completing the VDR test with lower accuracy”.
